Source: patent US11573241B2, “Total cellular iron as a marker of cancer stem cells and uses thereof” (Institut National de la Sante et de la Recherche Medicale …, priority 2016, dated 2023)
Entries after “also recorded” stand apart in the source; their conditions may differ.

How the values were obtained:
HMLER CD24^low cells [1] = assay: Annexin V/PI assay; assay type: cell-based, human; conditions: 0.5 μM, 72 h
Protocol: Annexin V/PI assay. Cells were treated as indicated. After treatment, cell death was quantified using Annexin V-FITC/Propidium Iodide (PI) assay according to the manufacturer's protocol (FITC Annexin V Apoptosis Detection Kit II, 556570, BD Pharmingen™) and analyzed by a LSRFortessa™ flow cytometer (BD Bioscience, San Jose, Calif.). The data were processed using Cell Quest software (BD Biosciences).

HMLER CD24^low cells [2] = assay: Fluorescence microscopy of ferritin subcellular localization; assay type: cell-based, human; conditions: 6 h
BT549 = assay: Sensibility to AM5; assay type: cell-based, human; conditions: BT549, CSTN
Protocol: (§1) Cell viability assay. Cell viability assay was carried out by plating 1000 cells/well in 96-well plates. Cells were treated as indicated for 72 h. CellTiter-Blue® Reagent (G8081, Promega) was added after 72 h treatment and cells were incubated for 1 h before recording fluorescence intensities (Excitation, 560/20 nm; Emission, 590/10 nm) using a Perkin Elmer Wallac 1420 Victor2 Microplate Reader.

Zr75.1 = assay: Sensibility to AM5; assay type: cell-based, human; conditions: Zr75.1, H+
Protocol: as §1

T47D = assay: Sensibility to AM5; assay type: cell-based, human; conditions: H+
Protocol: as §1

MCF-7 = assay: Sensibility to AM5; assay type: cell-based, human; conditions: MCF-7, H+
Protocol: as §1

HBL100 = assay: Sensibility to AM5; assay type: cell-based, human; conditions: HBL100, Non-tumoral
Protocol: as §1

MDA-MB-134 = assay: Sensibility to AM5; assay type: cell-based, human
Protocol: as §1

MDA-MD-157 = assay: Sensibility to AM5; assay type: cell-based, human; conditions: MDA-MD-157, CSTN
Protocol: as §1

HMLER CD24^high = assay: Sensibility to AM5; assay type: cell-based, human
Protocol: as §1

MDA-MB-231 = assay: Sensibility to AM5; assay type: cell-based, human; conditions: MDA-MB-231, CSTN
Protocol: as §1

MDA-MB-361 = assay: Sensibility to AM5; assay type: cell-based, human
Protocol: as §1

BT474 = assay: Sensibility to AM5; assay type: cell-based, human
Protocol: as §1

MCF-7 tumors = assay: Perl's reaction, iron(III) in MCF-7 xenograft tumor tissue; assay type: in vivo, mice; conditions: 3 mg/kg body weight/day, intraperitoneal
Protocol: Xenograft tumor formation experiments. MCF-7 cell cultures were collected, enzymatically dissociated, washed with PBS, and re-suspended in a PBS/Matrigel mixture (1:1 v/v). The mixture (0.1 mL) was then implanted in the mammary fat pad of 5-week-old female AthymicNude-Fox1nu mice bilaterally (Harlan, France). Mice were maintained in individually-ventilated cages (Tecniplast, France) under constant temperature and humidity. All experiments were performed under laminar flow (Tecniplast France). Mice received estradiol supplementation (0.4 mg/kg) the same day and 7 days from cell injection, and were observed and palpated for tumor appearance. Mice were treated with AM5 (3 mg/kg body weight/day) by means of intraperitoneal injections every 5 opened days of the week. Tumor growth was measured weekly using calipers. Tumor volume was determined using the standard formula: L×W^2×0.52, where L and W are the longest and shortest diameters, respectively. All animal studies were approved by the Direction des services Vétérinaires, Prefecture de Police, Paris, France (authorization number A75-14-08) and the ethical committee (number 34) of Paris Descartes University. No randomization was used and experimenters were blinded to drug treatments and tissue analyses.
Perl's reaction. Tumors from mice were removed at time of sacrifice. Tumors were fixed with 4% PFA and embedded in paraffin. […]

[3] = system: cells from treated PDX 1 and 2; assay: Limiting dilution assay, tumor-seeding capacity (ELDA); assay type: in vivo, NOD/SCID mice; conditions: re-implantation into secondary mice
Source text: Limiting dilution assay. Cells from 4-week treated mice were re-implanted into one to four secondary NOD/SCID mice with injection of 10, 50, 500 or 5000 cells for each treated tumor to functionally evaluate the proportion of residual CSCs in each treatment group (Unt., Doc, Sal, AM5) for the PDX 1 and 2. Each mouse that developed a tumor reaching a size of 10 mm was considered as a tumor-bearing mouse.
Estimation of number of CSCs in vivo. The number of mammary gland outgrowths obtained in a fat pad after cell re-implantation is currently used to evaluate the number of stem cells able to repopulate this fat pad. It is based on self-renewal and differentiation abilities, two hallmarks of stem cells. In the same manner, estimation of the number of CSCs can be obtained from tumor outgrowth data collected after limited dilution re-implantation of each group of treatments, based on tumor-initiating capacities of CSCs. For calculation, an online tool is available using Extreme Limiting Dilution Analysis (ELDA) (http://bioinf.wehi.edu.au/software/elda/) for limiting dilution analysis based on the Poisson single-hit model according to the number of outgrowths observed and the number of pat pad re-implanted for each cell dilution.

[4] = system: ALDH+ iCSCL-10A2 cell subpopulation; assay: Flow cytometry of ALDH+ CSC subpopulation in vitro; assay type: cell-based; conditions: 0.5 μM, 48 h
Protocol: FIG. 13. Sal and AM5 effect on an ALDH+CSC cell population in vitro. Flow cytometry measurement of the effect of 0.5 μM Sal and AM5 against ALDH+ iCSCL-10A2 cell subpopulation after treated for 48 h. DEAB is the diethylaminobenzaldehyde ALDH inhibitor.

RhoNox-1 reduction assay = conditions: in the presence of iron (II)
Protocol: RhoNox-1 reduction assay. Experiments were carried in 96-well plate dishes. Reagent stock solutions were freshly prepared using Milli-Q water. 50 μL of solutions of Sal (800 μM), DFO (800 μM) and FeSO4 (80 μM) were mixed prior to addition of 50 μL of RhoNox-1 (40 μM) and completed with the appropriate volume of water to reach a final volume of 200 μL per well. Measurements were performed 30 min after addition of RhoNox-1 to the mix and were recorded using the PARADIGM™ Microplate Detection Platform (ex. 492 nm; em. 580 nm).

Compound	form of cell death (HMLER CD24^low cells [1])	subcellular localization of ferritin (HMLER CD24^low cells [2])	Sensibility to AM5 (BT549)	Sensibility to AM5 (Zr75.1)	Sensibility to AM5 (T47D)	Sensibility to AM5 (MCF-7)	Sensibility to AM5 (HBL100)	Sensibility to AM5 (MDA-MB-134)	Sensibility to AM5 (MDA-MD-157)	Sensibility to AM5 (HMLER CD24^high)	Sensibility to AM5 (MDA-MB-231)	Sensibility to AM5 (MDA-MB-361)	Sensibility to AM5 (BT474)	iron(III) in tumor tissue (MCF-7 tumors)	tumor-seeding capacity of tumor cells treated in vivo [3]	effect against ALDH+ subpopulation [4]	effect on iron reactivity (fluorogenic reduction of RhoNox-1) (RhoNox-1 reduction assay)
C#CCN[C@@H]1C=C[C@]2(O[C@H]([C@@H](CC)C(=O)[C@@H](C)[C@@H](O)[C@H](C)C3O[C@@H](C(CC)C(=O)O)CC[C@@H]3C)[C@@H](C)C[C@H]2C)O[C@@]12CC[C@@](C)([C@H]1CC[C@](O)(CC)[C@H](C)O1)O2 (stereo partly shown) [AM5, Sal-Propargylamine]	ferroptosis	re-localization of ferritin to the lysosomal compartment	Resistant	First	Resistant	First	First	Second	Second	First	Second	Second	Second	accumulation of iron(III)	decreased tumor-seeding capacity; also recorded: more potent than both Sal and Doc	selectively targeted the ALDH+ subpopulation; also recorded: more effectively than Sal	–
CC[C@@H](C(=O)[C@@H](C)[C@@H](O)[C@H](C)[C@@H]1O[C@@H]([C@@H](CC)C(=O)O)CC[C@@H]1C)[C@H]1O[C@]2(C=C[C@@H](O)[C@]3(CC[C@@](C)([C@H]4CC[C@](O)(CC)[C@H](C)O4)O3)O2)[C@H](C)C[C@@H]1C [Sal, salinomycin, reference compound]	ferroptosis	–	–	–	–	–	–	–	–	–	–	–	–	–	decreased tumor-seeding capacity	–	without altering its reactivity
